According to patent US6916797B2, “α-arylethylpiperazine derivatives as neurokinin antagonists” (UCB, S.A., priority 2000, dated 2005):

How the values were obtained:
[1] = test system: verapamil binding site of the L-type calcium channel; test: Inhibition of [3H]D888 binding to the verapamil binding site of the L-type calcium channel (rat cerebral cortex membranes); details: 10 μmol/l of test substance
Method: 200-250 g male Sprague-Dawley rats are sacrificed by decapitation. Cerebral cortices are quickly dissected on ice and homogenized in a 20 mmol/l Tris-HCl (pH 7.4) buffer containing 250 mmol/l sucrose (buffer A). The homogenate is centrifuged at 30,000 g for 15 min at 4° C. The resulting crude membrane pellet is resuspended in a 50 mmol/l Tris-HCl (pH 7.4) buffer and incubated 15 min at 37° C. before being centrifuged at 30,000×g for 15 min at 4° C. After two more washes under the same conditions, the final pellet is resuspended in buffer A at a protein concentration ranging from 15 to 25 mg/ml and stored in liquid nitrogen.
Binding experiments are essentially performed according to Reynolds J. et al., J. Pharmacol. Exp. Ther. (1986), 237, 731-738. (1986) with slight modifications.
Membranes (120-175 μg/assay) are incubated at 25° C. for 60 min in 0.5 ml of a 50 mmol/l Tris-HCl buffer (pH 7.4) containing 2 mmol/l MgCl2, 0.2 to 0.4×10-9 mol/l of [^3H]D888 (85 Ci/mmol; Amersham, Belgium) and 10 μmol/l of the test substance. The non specific binding (NSB) is defined as the residual binding observed in the presence 10 μM verapamil. Membrane-bound and -free radioligands are separated by rapid filtration through glass fiber filters (equivalent to Whatman GF/C or GF/B; VEL, Belgium) presoaked in 0.1% polyethyleneimine to reduce non specific binding. Samples and filters are rinsed by at least 6 ml of 50 mmol/l Tris-HCl (pH 7.4) buffer. […] The radioactivity trapped onto the filters is counted by liquid scintillation in a β-counter.
The inhibition of the radioligand specific binding is calculated as follows: [formula] • where BI and Bo represent the binding observed in the presence and absence of the test substance respectively; and • BNS is the non specific binding.
Data analysis is performed by a computerized non linear curve fitting method using a set of equations describing several binding models assuming competitive interactions between ligands (Weiland G. A. and P. B. Molinoff Life Science (1981), 29, 313-330; Molinoff P. et al. (1981) Life Sci., 29, 427-443).

NK1 receptors = NK1 receptors (Homo sapiens, UniProt P25103); test: Binding of [4,5-3H-Leu10] substance P to human recombinant NK1 receptors expressed in CHO cell membranes; parameters: host or cells: CHO cells; details: pIC50 = -log IC50, concentration inhibiting by 50% the specific binding of [4,5-3H] substance P; tested as the free base/salt given in c1
Chain of NK1 receptors (P25103 whole entry): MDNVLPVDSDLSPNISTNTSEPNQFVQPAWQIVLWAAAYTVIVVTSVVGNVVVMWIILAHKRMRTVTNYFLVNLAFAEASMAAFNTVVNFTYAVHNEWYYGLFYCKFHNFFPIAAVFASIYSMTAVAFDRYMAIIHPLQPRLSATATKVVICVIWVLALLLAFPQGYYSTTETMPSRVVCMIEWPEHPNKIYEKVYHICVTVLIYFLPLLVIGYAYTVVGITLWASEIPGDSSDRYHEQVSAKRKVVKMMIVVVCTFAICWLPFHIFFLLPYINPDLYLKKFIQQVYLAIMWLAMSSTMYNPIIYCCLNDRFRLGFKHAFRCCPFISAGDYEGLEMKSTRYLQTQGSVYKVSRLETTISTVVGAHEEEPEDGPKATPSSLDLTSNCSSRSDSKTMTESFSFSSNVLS
Method: The following test was designed to assess the affinity of test substances for human recombinant NK1 receptors expressed in Chinese Hamster Ovarian (CHO) cells.
CHO cells expressing the human recombinant NK1 receptor are used. The cells were obtained from Euroscreen (Brussels, Belgium).
Cells expressing the human NK1 receptor are routinely cultured in 175 cm2 flasks containing 75 ml of medium F12 (Ham) enriched with 2 mmol/l L-glutamine, 100 IU/ml penicilline, 100 μg/ml streptomycine, 1% sodium pyruvate, 2.5 μg/ml fungizone amphotericin B, 400 μg/ml geneticin and supplemented with 10% foetal calf serum. […] When subcultured, the cells are seeded at a concentration of 50,000 cells/cm2.
Confluent cells are gently scraped and resuspended in 25 ml of phosphate buffered saline without calcium and magnesium. The cellular suspension is centrifuged at 1500×g for 3 min (4° C.). The cell pellet is homogenized in a 15 mmol/l Tris-HCl (pH 7.5) buffer, 2 mmol/l MgCl2, 0.3 mmol/l EDTA, 1 mmol/l EGTA. The crude membrane fraction is collected by two consecutive centrifugation steps at 40,000×g for 25 min (4° C.). The final pellet is resuspended in 20 mmol/l Tris-HCl (pH 7.4), 250 mmol/l sucrose buffer at a protein concentration ranging from 2 to 6 mg/ml and stored in liquid nitrogen. • 1.2.2. Test Design
The inhibition constant (Ki) is determined using increasing concentrations of the test substance. The concentration range usually encompasses 6 log units with variable steps (0.3 to 1 log). Assays are performed in mono- or duplicate.
Membranes are incubated at 25° C. for 60 min in 0.5 ml of a 50 mmol/l Tris-HCl buffer (pH 7.4) containing 2 mmol/l MgCl2, 100 μg/ml bacitracine, 0.1 to 0.4×10^−9 mol/l of [4,5^3H-Leu^10] substance P (specific activity>100 Ci/mmol) and increasing concentrations of the test substance. […] Membrane-bound and free radioligands are separated by rapid filtration through glass fiber filters (equivalent to Whatman GF/C or GF/B; VEL, Belgium) presoaked in 0.1% polyethyleneimine to reduce non specific binding. Samples and filters are rinsed by at least 6 ml of 50 mmol/l Tris-HCl (pH 7.4) buffer.
Initial values for the different variables may be provided by the experimenter.

[2] = test system: isolated rat aorta contracted by 100 mM KCl; test: Effect of compound on isolated rat aorta contracted by 100 mM KCl; details: 10^−5 M; contraction by 100 mM KCl
Method: Rat thoracic aorta depolarized by 100 mM KCl develops a contraction induced by an influx of Ca^2+ into the smooth muscle cell. An inhibition of this contraction could predict a Ca^2+ antagonist activity.
The method was adapted from Polster P. et al., J. Pharmacol. Exp. Ther. (1990), 255, 593: rings of thoracic aorta were prepared from male Wistar rats (250-400 g) and mounted under an optimal resting tension of 2 g in 10 ml organ baths containing modified Krebs' solution (NaCl 112 mM, NaHCO3 25 mM, KCl 5 mM, MgSO4 1.2 mM, CaCl2 2.5 mM, KH2PO4 1 mM and glucose 11.5 mM, pH 7.4). The bathing solution was maintained at a temperature of 37° C. and gassed with 95% O2 and 5% CO2. Isometric contractions were measured with a force transducer connected to an amplifier. A computer system was used to control data acquisition and fluid circulation through electrovalves. Drugs were manually injected into the bath.
Each ring was allowed to equilibrate for 60 min in the modified Krebs' solution. […] After obtaining two reproducible control contractions, a 3rd contraction was induced and the test compound was added to the bathing medium for 2 hours. Only preparation in which the contractions were matched were used. Each tissue received only one concentration of the test compound. Appropriate control experiments were conducted in order to test the effect of the solvant.
To normalize data, the change in tension due to the drug was compared to the change of tension due to the solvant and expressed as percentage of the induced relaxation of the initial contraction. Raw data were processed by a computer system and the pD′2 value was calculated following the method of Van Rossum J. M. et al., Arch. Int. Pharmacodyn. Ther. (1963), 143, 299.

| Structure (SMILES) | % inhibition of [3H]D888 binding to the verapamil binding site of the L-type calcium channel [1] | IC50 (NK1 receptors) | Result: effect of compound on isolated rat aorta contracted by 100 mM KCl [2] |
| --- | --- | --- | --- |
| O=C(O)C(c1ccccc1)N1CCN([C@H](COCc2cc(C(F)(F)F)cc(C(F)(F)F)c2)c2ccccc2)CC1 (mixture of isomers) [Compound 244] | −+ (+: inhibition comprised between 20 and 50%) | 0.0398 µM |  |
| O=C(O)CCCCCN1CCN(C(COCc2cc(C(F)(F)F)cc(C(F)(F)F)c2)c2ccccc2)CC1 (racemic) [Compound 234, 6-{4-[2-(3,5-Bis-trifluoromethyl-benzyloxy)-1-phenyl-ethyl]-piperazin-1-yl}-hexanoic acid] | 0 (0: inhibition < 20%) | 0.0158 µM |  |
| O=C(O)c1ccccc1CN1CCN(C(COCc2cc(C(F)(F)F)cc(C(F)(F)F)c2)c2ccccc2)CC1 (racemic) [Compound 241] | + (+: inhibition comprised between 20 and 50%) | 0.00794 µM |  |
| O=C(O)CN1CCN(C(COCc2cc(C(F)(F)F)cc(C(F)(F)F)c2)c2ccc(Br)cc2)CC1 (racemic) [Compound 250] | + (+: inhibition comprised between 20 and 50%) | 0.0794 µM |  |
| CNC(=O)CN1CCN(C(COCc2cc(C(F)(F)F)cc(C(F)(F)F)c2)c2ccccc2)CC1 (racemic) [Compound 292, 2-{4-[2-(3,5-Bis-trifluoromethyl-benzyloxy)-1-phenyl-ethyl]-piperazin-1-yl}-N-methyl-acetamide] | + (+: inhibition comprised between 20 and 50%) | 0.0158 µM |  |
| CC(OCC(c1ccccc1)N1CCN(CC(=O)O)CC1)c1cc(C(F)(F)F)cc(C(F)(F)F)c1 (single isomer, unassigned) [Compound 273] | 0 (0: inhibition < 20%) | 0.00316 µM |  |
| CC(OCC(c1ccccc1)N1CCN(CC(=O)O)CC1)c1cc(C(F)(F)F)cc(C(F)(F)F)c1 (single isomer, unassigned) [Compound 274] | 0 (0: inhibition < 20%) | 0.0126 µM |  |
| O=C(O)CN1CCN([C@@H](COCc2cc(C(F)(F)F)cc(C(F)(F)F)c2)c2ccccc2)CC1 [Compound 231] | 0 (0: inhibition < 20%) | 0.0794 µM |  |
| O=C(O)COCCN1CCN([C@@H](COCc2cc(C(F)(F)F)cc(C(F)(F)F)c2)c2ccccc2)CC1 [Compound 237] | 0 (0: inhibition < 20%) |  | inactive à 10^−5 M |
| C[C@@H](OC[C@@H](c1ccccc1)N1CCN(CC(=O)O)CC1)c1cc(C(F)(F)F)cc(C(F)(F)F)c1 [Compound 277] | 0 (0: inhibition < 20%) | 0.01 µM |  |
| N#CCN1CCN([C@H](COCc2cc(C(F)(F)F)cc(C(F)(F)F)c2)c2ccccc2)CC1 [Compound 291, (S)-{4-[2-(3,5-Bis-trifluoromethyl-benzyloxy)-1-phenyl-ethyl]-piperazin-1-yl}-acetonitrile] | 0 (0: inhibition < 20%) | 0.0251 µM |  |
| CC(OCC(c1ccccc1)N1CCN(CCCCc2nnn[nH]2)CC1)c1cc(C(F)(F)F)cc(C(F)(F)F)c1 (stereo not drawn) [Compound 302] | + (+: inhibition comprised between 20 and 50%) | 0.00398 µM |  |
| CS(=O)(=O)NC(=O)COCCN1CCN(C(COCc2cc(C(F)(F)F)cc(C(F)(F)F)c2)c2ccccc2)CC1 (stereo not drawn) [Compound 305, N-[(2-{4-[2-(3,5-Bis-trifluoromethyl-benzyloxy)-1-phenyl-ethyl]-piperazin-1-yl}-ethoxy)-acetyl]-methanesulfonamide] | 0 (0: inhibition < 20%) | 0.0794 µM |  |
| O=C(COCCN1CCN(C(COCc2cc(C(F)(F)F)cc(C(F)(F)F)c2)c2ccccc2)CC1)NS(=O)(=O)c1ccccc1 (stereo not drawn) [Compound 306, N-[(2-{4-[2-(3,5-Bis-trifluoromethyl-benzyloxy)-1-phenyl-ethyl]-piperazin-1-yl}-ethoxy)-acetyl]-benzenesulfonamide] | + (+: inhibition comprised between 20 and 50%) | 0.0316 µM |  |
| Cc1ccc(S(=O)(=O)NC(=O)OCCN2CCN(C(COCc3cc(C(F)(F)F)cc(C(F)(F)F)c3)c3ccccc3)CC2)cc1 (stereo not drawn) [Compound 307, N-p-toluenesulfonic-carbamic acid 2-{4-[2-(3,5-bis-trifluoromethyl-benzyloxy)-1-phenyl-ethyl]-piperazin-1-yl}-ethyl ester] | + (+: inhibition comprised between 20 and 50%) | 0.0158 µM |  |
| O=C(O)C1CCC(N2CCN(C(COCc3cc(C(F)(F)F)cc(C(F)(F)F)c3)c3ccccc3)CC2)CC1 (stereo not drawn) [Compound 313, cis- or trans-4-{4-[2-(3,5-Bis-trifluoromethyl-benzyloxy)-1-phenyl-ethyl]-piperazin-1-yl}-cyclohexanecarboxylic acid] | 0 (0: inhibition < 20%) | 0.0158 µM |  |
| N#Cc1ccc(C(COCc2cc(C(F)(F)F)cc(C(F)(F)F)c2)N2CCN(CC(=O)O)CC2)cc1 (stereo not drawn) [Compound 320, {4-[2-(3,5-Bis-trifluoromethyl-benzyloxy)-1-(4-cyano-phenyl)-ethyl]-piperazin-1-yl}-acetic acid] | 0 (0: inhibition < 20%) |  |  |
